Measured values: patent publication US20250000855A1, “USE OF APOMORPHINE AS THERAPEUTIC AGENT FOR NECROPTOSIS-RELATED DISEASES” (INDUSTRY-ACADEMIC COOPERATION FOUNDATION, YONSEI UNIVERSITY, priority 2021, published 2025)
pIC50: −log10 of the molar value.

Experiments:
THP-1 cells = experiment: Propidium iodide (PI) uptake / cell membrane integrity in TBZ-induced necroptosis; format: cell-based, human
Method: Cells were pretreated with Z-VAD (invivoGen, tlrl-vad) and a compound for 1 hour, and necroptosis was induced with TNF-α (ATGen, TNF0501) and BV6 (Biovision, B1332-5) for the indicated time. The prepared cells were appropriately treated according to analysis (Z-VAD: carbobenzoxy-valyl-alanyl-aspartyl, TNF-α: tumor necrosis factor-α, BV6: 4,4′-(1,6-hexanediyl)bis[N-methyl-L-alanyl-(2S)-2-cyclohexylglycyl-L-prolyl-β-phenyl-L-phenylalaninamide)
Cells were plated in a flat, transparent-bottomed, black-walled 96-well plate, and subjected to 7-hour chemical treatment and necroptosis induction, and then PI (BD Biosciences, 556463) was added to a final concentration of 50 μg/ml. After incubation for 10 minutes under the original culture conditions, the cells were centrifuged at 400×g for 5 minutes. The emission wavelength at 617 nm following excitation at 530 nm was measured by real-time fluorescence monitoring on a Varioskan Flash 3001 plate reader. Data collection was performed at 37° C. (FIG. 1A).
As a first screening process, to investigate changes in cell membrane integrity by measuring PI uptake (Experimental Method 1-8), a compound in which the PI uptake had been reduced to less than 30% of the signal intensity upon TBZ treatment was selected.
After treating TBZ+APO-treated THP-1 cells with PI for 10 minutes, the PI taken up by the cells was measured on a microplate reader. […]

DSS-induced colitis = DSS-induced colitis mouse model; format: in vivo, C57BL/6 mice
Method: An animal experiment was performed on 6 to 8-week-old male C57BL/6 mice in accordance with the procedures approved by the Animal Care and Use Committee of the Yonsei Laboratory Animal Research Center (YLARC, 2018-0024) at Yonsei University. The mice were housed in polypropylene cages with a maximum of four mice per cage under constant temperature and humidity, and the light/dark cycle was 12 hours/12 hours. All mice were given an acclimation period of at least 7 days before participation.
For colitis induced by dextran sulfate sodium (DSS, 36-50 kDa, MP Biomedicals), the mice were administered 2.5% DSS in drinking water for 7 days. The mice were randomly divided into 8 groups as follows. • 1) Control • 2) Apomorphine-treated group (=APO; STK088477, Vitas-M, 1.5 mg/kg, daily intraperitoneal injection) • 3) APO-treated group (15 mg/kg, daily intraperitoneal injection) 4) DSS-treated group • 5) DSS and necrostatine-1-treated group (NEC-1; Biovision, 1864-5, 1.5 mg/kg, daily intraperitoneal injection) • 6) DSS and APO-treated group (0.15 mg/kg, daily intraperitoneal injection) • 7) DSS and APO-treated group (1.5 mg/kg, daily intraperitoneal injection) • 8) DSS and APO-treated group (15 mg/kg, daily intraperitoneal injection)
The body weights and disease activity index (DAI) scores of the mice were recorded daily. DAI was calculated by adding scores of body weight loss (0 point=none, 1 point=1%-5% weight loss, 2 points=5%-10% weight loss, 3 points=10%-15% weight loss, 4 points=15% or more weight loss), stool consistency/diarrhea (0 point=normal, 2 points=loose stools, 4 points=watery diarrhea), and bleeding (0 point=no bleeding, 2 points=slight bleeding, 4 points=total bleeding). At the end of the experiment, the mice were sacrificed, the colon was removed, and then changes in colon length were confirmed, and a weight loss was measured.
At the end of the experiment, the mice were sacrificed, and the colon was removed (without the cecum). The removed colon was washed with cold phosphate-buffered saline (PBS; Welgene, LB001-02) before the measurement of its length. The measured colon was prepared for further analysis by cutting intestinal segments along the mesenteric line and washing with PBS. Then, the intestinal segments were placed in a petri dish and fixed with modified Bouin's fixative (50% ethanol/5% acetic acid in dH2O). The lumen side was maintained upward by holding the proximal end with forceps in one hand and a toothpick in the other. Then, the flat open end of the colon was pulled with the forceps and the proximal end was wrapped around the toothpick. The entire large intestine was wrapped, placed in a cassette, and immersed in 4% paraformaldehyde (Biosesang, PC2031-100-00) at 4° C. overnight.
After the experiment, colon tissues collected from the sacrificed mice were fixed in 4% paraformaldehyde overnight. Swiss-rolled and fixed colon specimens were embedded in paraffin. The specimens were cut into 5-μm sections, and then the sections were stained with hematoxylin and eosin (H & E). The histological evaluation of colitis lesions along the entire length was performed with reference to a scoring system of the degree of crypt structure damage (0˜3), the degree of inflammatory cell infiltration (0˜3), and submucosal edema (0˜3).
5-μm cut paraffin sections were blocked with 5% BSA-supplemented TBS-T, and then the sections and primary antibodies were co-incubated at 4° C. overnight. Secondary antibodies were added and incubated for 1 hour. […]

differences due to treatment with APO alone (without DSS) (DSS-induced colitis; mice without DSS, APO 1.5 or 15 mg/kg daily intraperitoneal injection): no differences
Structure (SMILES): CN1CCc2cccc3c2[C@H]1Cc1ccc(O)c(O)c1-3 [APO, apomorphine]
pIC50 (THP-1 cells; Homo sapiens, THP-1, concentration-dependent APO treatment, FIG. 1D, read-out: IC50, change in cell membrane integrity): 5.24
PI uptake rate (THP-1 cells; THP-1 cells treated with TBZ (TNF-α+BV6+Z-VAD)+APO, PI 10 minutes, FIG. 1A): effectively reduced
characteristic symptoms of colitis observed by H&E staining and PAS staining (DSS-induced colitis; DSS mice, APO 0.15, 1.5, and 15 mg/kg daily intraperitoneal injection, FIG. 7A): alleviated in a concentration-dependent manner
HI score (DSS-induced colitis; DSS mice, APO daily intraperitoneal injection, FIG. 7A): reduce
degree of colon shortening (DSS-induced colitis; DSS mice, APO daily intraperitoneal injection, FIG. 7B): reduce
DAI score (DSS-induced colitis; DSS mice, APO daily intraperitoneal injection, FIG. 7C): reduce
